In PubChem BioAssay AID588653 (The Scripps Research Institute Molecular Screening Center, 2011):

biological target: Epidermal growth factor receptor (Homo sapiens) (UniProt P00533); assay: p-EGFR level shift in colorectal carcinoma cells – HT29 cells, chemiluminescent western blot, powder samples, counter-screen for KLF5 inhibitor project, late-stage follow-up (AID 588653); conditions: 24 h, at 10 µM
Sequence (P00533 whole entry, looked up): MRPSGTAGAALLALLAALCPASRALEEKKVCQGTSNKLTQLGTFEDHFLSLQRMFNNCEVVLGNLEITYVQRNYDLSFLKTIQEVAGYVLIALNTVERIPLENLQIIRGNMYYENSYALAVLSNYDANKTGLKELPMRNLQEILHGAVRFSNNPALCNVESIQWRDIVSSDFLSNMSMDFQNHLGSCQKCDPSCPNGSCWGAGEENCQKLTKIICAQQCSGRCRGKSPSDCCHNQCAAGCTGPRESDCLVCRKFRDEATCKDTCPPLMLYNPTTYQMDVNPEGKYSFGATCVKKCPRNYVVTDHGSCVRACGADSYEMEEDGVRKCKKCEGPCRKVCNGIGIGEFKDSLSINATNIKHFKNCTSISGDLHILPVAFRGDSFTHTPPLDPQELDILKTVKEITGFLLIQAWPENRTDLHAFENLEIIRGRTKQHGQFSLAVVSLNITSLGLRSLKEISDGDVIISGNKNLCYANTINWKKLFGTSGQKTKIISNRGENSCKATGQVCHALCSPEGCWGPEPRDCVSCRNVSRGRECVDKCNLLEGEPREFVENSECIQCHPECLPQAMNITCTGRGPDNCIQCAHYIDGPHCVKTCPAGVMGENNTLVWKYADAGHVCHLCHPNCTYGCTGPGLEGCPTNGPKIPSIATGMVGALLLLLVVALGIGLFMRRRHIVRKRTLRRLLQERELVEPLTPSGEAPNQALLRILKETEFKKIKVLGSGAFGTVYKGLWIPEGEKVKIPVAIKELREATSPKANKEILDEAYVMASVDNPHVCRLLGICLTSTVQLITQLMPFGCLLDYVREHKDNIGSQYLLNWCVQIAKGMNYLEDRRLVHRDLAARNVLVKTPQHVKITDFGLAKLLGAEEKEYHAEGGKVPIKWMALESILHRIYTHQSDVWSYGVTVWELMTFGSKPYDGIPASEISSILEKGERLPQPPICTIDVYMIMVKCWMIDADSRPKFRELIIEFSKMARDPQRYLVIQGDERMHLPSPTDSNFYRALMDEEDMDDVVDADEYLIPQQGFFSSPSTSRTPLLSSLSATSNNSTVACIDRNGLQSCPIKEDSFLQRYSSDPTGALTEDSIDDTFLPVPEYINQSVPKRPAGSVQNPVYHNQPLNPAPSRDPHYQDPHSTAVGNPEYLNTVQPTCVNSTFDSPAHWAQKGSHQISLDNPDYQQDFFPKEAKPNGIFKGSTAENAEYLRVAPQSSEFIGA

| inhibition | SMILES |
| --- | --- |
| -47.5% | CN(C(=O)COC(=O)/C=C/c1cccc([N+](=O)[O-])c1)C1CCS(=O)(=O)C1 (stereo not drawn) |
| -130% | CN(C(=O)CNC(=O)/C=C/c1cccc(Cl)c1)C1CCS(=O)(=O)C1 (stereo not drawn) |
| -116% | CN(C(=O)CNC(=O)/C=C/c1cccc(Cl)c1)C1CCS(=O)(=O)CC1 |
